Holding throughout (test): DTP human tumour cell line panel, 48 h
Assay [1] has as its system OVCAR-3 ovarian.
Assay [2] relates to SK-OV-3 ovarian.
Assay [3] has as its system NCI-H23 lung.
The test system of assay [4] is BT-549 breast.
Assay [5] concerns NCI-H226 lung.
Assay [6] concerns SK-MEL-2 melanoma.
The test system of assay [7] is SF-539 CNS.
Assay [8] concerns HOP-92 NSCLC.
Assay [9] concerns HOP-62 NSCLC.
For assay [10], the system named is PC-3 prostate.

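Test compounds were applied to cells in 96-well plates for 48 hours at 5 doses. TGI denotes the concentration required for complete inhibition of growth.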

Regarding `O=C1c2cccc3cccc(c23)C(=O)N1CCCNCCCCNCCCNCCCN1C(=O)c2cccc3cccc(c23)C1=O`, the concentration for total growth inhibition (TGI) was determined as 2.12 µM in assay [1]; 3.42 µM in assay [2]; 1.72 µM in assay [3]; 3.3 µM in assay [4]; 2.15 µM in assay [5]; 2.75 µM in [6]. Moreover, the TGI in assay [7] came to 1.94 µM; in [8], 2.37 µM; in assay [9], 3.6 µM; in [10], 1.76 µM.
With `CC1OC(O[C@H]2C3C=CO[C@@H](OC4OC(CO)C(O)C(O)C4O)C3[C@@]3(COC(=O)/C=C/c4ccccc4)O[C@@H]23)C(O)C(O)C1O` (stereo partly specified), the TGI in assay [1], in assay [2], in assay [3], in assay [4], in assay [5] and in [6] was over 100 µM in each case. The TGI in assay [8], in [9] and in assay [10] was over 100 µM each time.
As for `O=C(CN1C(=O)CC(c2ccccc2)(c2ccccc2)C1=O)N1CCN(CCO)CC1`, the concentration for total growth inhibition (TGI) in [1], in assay [2], in [3], in assay [4], in [6] and in [7] was over 100 µM each time. Also, the TGI in assay [8], in assay [9] and in assay [10] was over 100 µM each time.
Turning to `Cc1cc(C)nc(NC(=S)Nc2ccc([N+](=O)[O-])cc2)c1`, the TGI in [3], in assay [4], in [5], in [6], in [7] and in [8] was over 100 µM in each case. The TGI in assay [9] and in assay [10] was over 100 µM each time.
For `O=C1CSC2(CC(/C=C/c3cccs3)=NN2c2cccc(S(=O)(=O)O)c2)N1c1nc2ccccc2s1` (stereo unspecified), the TGI in assay [3], in assay [4], in assay [5], in assay [6], in [7] and in assay [8] was over 100 µM throughout. In assay [10], this compound came in with a TGI of over 100 µM.
As to `Cn1c2ccccc2c2c(=S)c3ccccc3ccc21`, the TGI in assay [1], in assay [2], in [3], in [4], in [5] and in assay [8] was over 100 µM in each case. In addition, the TGI in assay [9] and in [10] was over 100 µM each time.
For `N#CC(c1ccccc1)N(CCOCCOCCN(C(=O)c1ccccc1)C(C#N)c1ccccc1)C(=O)c1ccccc1` (stereo unspecified), the TGI in assay [1], in assay [2], in assay [3], in assay [4], in assay [5] and in [6] was over 100 µM each time. Moreover, the TGI in assay [7], in [8] and in [10] was over 100 µM each time.
With `CN1CCN(Cc2cc3c(nn2)-c2ccccc2C3=O)CC1`, the TGI in assay [2], in assay [3], in assay [4], in assay [5], in assay [6] and in assay [7] was over 100 µM throughout. For the same compound, the TGI in [8] and in assay [10] was over 100 µM throughout.
In the case of `Cc1cc(N(C)C)c2ccccc2[n+]1CCCCCCCCCC[n+]1c(C)cc(N(C)C)c2ccccc21`, the TGI in assay [1] was 10.5 µM; in assay [2], 5.81 µM; in assay [3], 5.32 µM; in assay [4] it was 15.4 µM; in assay [5] it was over 100 µM; in assay [6], 4.98 µM. In addition, the TGI in [7] is 8.15 µM; in [8], 5.44 µM; in assay [10] it was 7.48 µM.
Consider `Nc1ncnc2c1ccn2C/C=C/CO`, for which the TGI in assay [1], in assay [2], in [3], in assay [4], in assay [6] and in [7] was over 100 µM in each case. Further, the concentration for total growth inhibition (TGI) in assay [8], in [9] and in [10] was over 100 µM in each case.
For the compound `O=C(CNc1ccc(Cl)cc1Cl)Nn1c(-c2ccccc2)nc2ccccc2c1=O`, the TGI is 31.3 µM in assay [1]; over 100 µM in assay [2]; 29.8 µM in assay [3]; 34.5 µM in assay [4]; 58.3 µM in assay [5]; 35.6 µM in assay [7]. Moreover, the TGI in [8] was found to be 22.7 µM; in assay [10], 29.9 µM.
Regarding `CCOC(=O)/C(C(C)=O)=C(\OC(C)=O)c1ccncc1C(=O)O`, the TGI in [1], in assay [2], in [3], in assay [4], in assay [5] and in [6] was over 100 µM throughout. The TGI in assay [7], in assay [8] and in assay [10] was over 100 µM throughout.
As for `Cc1ccsc1/C=N/Nc1cnccn1`, the TGI in assay [1], in assay [2], in assay [3], in [4], in assay [5] and in assay [6] was over 100 µM in each case. Besides, the TGI in [8], in [9] and in [10] was over 100 µM in each case.
Regarding `CCN(CC)c1ccc(/C=C/c2ccnc3ccccc23)cc1`, the TGI in assay [1], in assay [2], in assay [3], in assay [4], in assay [6] and in assay [7] was over 100 µM in each case. Further, the TGI in assay [8], in [9] and in assay [10] was over 100 µM in each case.

One may read the TGI as the concentration giving total growth inhibition. Read a high TGI as less potent growth arrest.
